These compounds were tested against T1, human GPR84 receptor (Homo sapiens, UniProt Q9NQS5) (assay: cAMP HTRF assay for identification of cellular GPR84 antagonists). Conditions: CHO-K1 cells stably expressing human GPR84; Forskolin + agonist 6-OAU (EC80); average or median values.
T1 construct: frozen aliquots prepared by acCELLerate; host or cells: CHO-K1
Assay type: cell-based
Method in brief: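 Forskolin-stimulated CHO-K1 cells stably expressing human GPR84, agonist-suppressed cAMP measured by HTRF (665/620 ratio) after lysis. Compounds at 11 concentrations, 20 μM to 0.07 nM, duplicate; normalized to DMSO and no-agonist controls; IC50 by 4-parameter fit.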

T1 sequence (Q9NQS5 whole entry): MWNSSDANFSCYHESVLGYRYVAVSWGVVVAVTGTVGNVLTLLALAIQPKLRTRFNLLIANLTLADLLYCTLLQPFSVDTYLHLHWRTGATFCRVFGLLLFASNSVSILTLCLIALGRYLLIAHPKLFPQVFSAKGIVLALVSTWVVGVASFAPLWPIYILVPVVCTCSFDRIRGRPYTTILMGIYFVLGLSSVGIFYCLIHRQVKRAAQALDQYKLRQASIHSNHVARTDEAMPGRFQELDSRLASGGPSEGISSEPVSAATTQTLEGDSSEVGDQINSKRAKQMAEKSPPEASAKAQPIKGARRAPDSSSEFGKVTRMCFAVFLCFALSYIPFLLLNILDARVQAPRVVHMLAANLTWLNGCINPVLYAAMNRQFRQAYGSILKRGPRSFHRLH

| Compound | IC50 [nM] |
| --- | --- |
| Cc1c(C(=O)NC[C@@H]2CCCO2)oc2c1-c1nn(Cc3ncccn3)cc1CC2 [Example 83, 8-methyl-2-(pyrimidin-2-ylmethyl)-N-[(2S)-tetrahydrofuran-2-ylmethyl]-4,5-dihydro-2H-furo[2,3-g]indazole-7-carboxamide] | 180 |
| Cc1c(C(=O)NCC2CN(C)CCO2)oc2c1-c1nn(Cc3ccccn3)cc1CC2 (single isomer, unassigned) [Example 38-1] | 1420 |
| Cc1ccc(Cn2cc3c(n2)-c2c(oc(C(=O)NC[C@@H]4COCCO4)c2C(F)(F)F)CC32CCC2)nc1 [Example 278, N-[(2R)-1,4-Dioxan-2-ylmethyl]-2′-[(5-methylpyridin-2-yl)methyl]-8′-(trifluormethyl)-2′,5′-dihydrospiro[cyclobutan-1,4′-furo[2,3-g]indazol]-7′-carboxamide] | 10 |
| Cc1c(C(=O)NC[C@@H]2COCCO2)oc2c1-c1nn(CC3(F)COC3)cc1CC2 [Example 96, N-[(2R)-1,4-dioxan-2-ylmethyl]-2-[(3-fluorooxetan-3-yl)methyl]-8-methyl-4,5-dihydro-2H-furo[2,3-g]indazole-7-carboxamide] | 47 |
| CN1CCC(Cn2cc3c(n2)-c2c(oc(C(=O)NC[C@@H]4COCCO4)c2C(F)(F)F)CC3)CC1 [Example 309, N-{[(2R)-1,4-dioxan-2-yl]methyl}-2-[(1-methylpiperidin-4-yl)methyl]-8-(trifluoromethyl)-4,5-dihydro-2H-furo[2,3-g]indazole-7-carboxamide] | 154 |
| Cc1c(C(=O)NCC2CN(C)CCO2)oc2c1-c1nn(Cc3ccccn3)cc1CC2 (single isomer, unassigned) [Example 38-2] | 3520 |
| Cc1c(C(=O)NC[C@@H]2COCCO2)oc2c1-c1nn(C[C@H]3COCCO3)cc1[C@H](C(F)(F)F)C2 (single isomer, unassigned) [Example 265-2, (4R or 4S)-N-{(2R)-1 ,4-dioxan-2-yl]methyl}-2-{[(2S)-1,4-dioxan-2-yl]methyl}-8-methyl-4-(trifluoromethyl)-4,5-dihydro-2H-furo[2,3-g]indazole-7-carboxamide] | 1210 |
| O=C(NC[C@@H]1COCCO1)c1oc2c(c1C(F)(F)F)-c1nn(CC3CCOCC3)cc1CC2 [Example 242, N-{[(2R)-1,4-dioxan-2-yl]methyl}-2-[(oxan-4-yl)methyl]-8-(trifluoromethyl)-4,5-dihydro-2H-furo[2,3-g]indazole-7-carboxamide] | 29 |
| Cc1c(C(=O)NC[C@@H]2CCCO2)oc2c1-c1nn(CC3(F)CNC3)cc1CC2 [Example 157, 2-[(3-fluoroazetidin-3-yl)methyl]-8-methyl-N-[(2S)-tetrahydrofuran-2-ylmethyl]-4,5-dihydro-2H-furo[2,3-g]indazole-7-carboxamide] | 180 |
| Cc1c(C(=O)NC[C@@H]2CCCO2)oc2c1-c1nn(Cc3noc(C4CC4)n3)cc1CC2 [Example 137, 2-[(5-cyclopropyl-1,2,4-oxadiazol-3-yl)methyl]-8-methyl-N-[(2S)-tetrahydrofuran-2-ylmethyl]-4,5-dihydro-2H-furo[2,3-g]indazole-7-carboxamide] | 45 |
| O=C(NCCc1nccs1)c1oc2c(c1C(F)(F)F)-c1nn(C[C@H]3COCCO3)cc1CC2 [Example 237, 2-[(2S)-1,4-Dioxan-2-ylmethyl]-N-[2-(1,3-thiazol-2-yl)ethyl]-8-(trifluormethyl)-4,5-dihydro-2H-furo[2,3-g]indazol-7-carboxamide] | 496 |
| Cc1ccc(Cn2cc3c(n2)-c2c(oc(C(=O)NC[C@@H]4CCCO4)c2C)CC32CC2)cn1 [Example 211] | 17 |
| Cc1c(C(=O)NC[C@@H]2COCCO2)oc2c1-c1nn(C[C@H]3COCCO3)cc1C(C)C2 (mixture of isomers) [Example 248, (4±)-N-{[(2R)-1,4-dioxan-2-yl]methyl}-2-{[(2S)-1,4-dioxan-2-yl]methyl}-4,8-dimethyl-4,5-dihydro-2H-furo[2,3-g]indazole-7-carboxamide] | 145 |
| Cc1c(C(=O)NCc2cc(-c3ccccc3Cl)on2)oc2c1-c1nn(Cc3ccccn3)cc1CC2 [Example 17, N-{[5-(2-chlorophenyl)-1,2-oxazol-3-yl]methyl}-8-methyl-2-(pyridin-2-ylmethyl)-4,5-dihydro-2H-furo[2,3-g]indazole-7-carboxamide] | 10100 |
| Cc1c(C(=O)NC[C@@H]2COCCO2)oc2c1-c1nn(CCN)cc1CC2 [Example 161, 2-(2-aminoethyl)-N-[(2R)-1,4-dioxan-2-ylmethyl]-8-methyl-4,5-dihydro-2H-furo[2,3-g]indazole-7-carboxamide] | 6520 |
| Cc1c(C(=O)NCc2cc(C(F)(F)F)on2)oc2c1-c1nn(Cc3ccccn3)cc1CC2 [Example 25, 8-methyl-2-(pyridin-2-ylmethyl)-N-{[5-(trifluoromethyl)-1,2-oxazol-3-yl]methyl}-4,5-dihydro-2H-furo[2,3-g]indazole-7-carboxamide] | 160 |

| Compound | IC50 [nM] |
| --- | --- |
| Cc1cccc(CNC(=O)c2oc3c(c2C(F)(F)F)-c2nn(C[C@H]4COCCO4)cc2CC3)n1 [Example 238, 2-[(2S)-1,4-Dioxan-2-ylmethyl]-N-[(6-methylpyridin-2-yl)methyl]-8-(trifluormethyl)-4,5-dihydro-2H-furo[2,3-g]indazol-7-carboxamide] | 500 |
| Cc1c(C(=O)NC[C@@H]2COCCO2)oc2c1-c1nn(Cc3ncccn3)cc1CC2 [Example 84, N-[(2R)-1,4-dioxan-2-ylmethyl]-8-methyl-2-(pyrimidin-2-ylmethyl)-4,5-dihydro-2H-furo[2,3-g]indazole-7-carboxamide] | 180 |
| Cc1cnc(CNC(=O)c2oc3c(c2C(F)(F)F)-c2nn(C[C@H]4COCCO4)cc2CC3)cn1 [Example 227, 2-[(2S)-1,4-Dioxan-2-ylmethyl]-N-[(5-methylpyrazin-2-yl)methyl]-8-(trifluormethyl)-4,5-dihydro-2H-furo[2,3-g]indazol-7-carboxamide] | 24 |
| O=C(NCCc1cccnc1)c1oc2c(c1C(F)(F)F)-c1nn(C[C@H]3COCCO3)cc1CC2 [Example 236, 2-[(2S)-1,4-Dioxan-2-ylmethyl]-N-[2-(pyridin-3-yl)ethyl]-8-(trifluormethyl)-4,5-dihydro-2H-furo[2,3-g]indazol-7-carboxamide] | 8760 |
| Cc1c(C(=O)NC[C@H]2CCC3(COC3)O2)oc2c1-c1nn(C[C@H]3COCCO3)cc1C1(CC1)C2 (single isomer, unassigned) [Example 201-2] | 112 |
| CC1Cc2oc(C(=O)NC[C@@H]3CCCO3)c(C(F)(F)F)c2-c2nn(C[C@H]3COCCO3)cc21 (mixture of isomers) [Example 255, (4±)-2-{[(2S)-1,4-dioxan-2-yl]methyl}-4-methyl-N-{[(2S)-oxolan-2-yl]methyl}-8-(trifluoromethyl)-4,5-dihydro-2H-furo[2,3-g]indazole-7-carboxamide] | 5 |
| Cc1ccc(Cn2cc3c(n2)-c2c(oc(C(=O)NCc4ccn(C)n4)c2C(F)(F)F)CC32CCC2)nc1 [Example 279, N-[(1-Methyl-1H-pyrazol-3-yl)methyl]-2′-[(5-methylpyridin-2-yl)methyl]-8′-(trifluormethyl)-2′,5′-dihydrospiro[cyclobutan-1,4′-furo[2,3-g]indazol]-7′-carboxamide] | 53 |
| C[C@@H]1Cc2oc(C(=O)NCc3cncs3)c(C(F)(F)F)c2-c2nn(C[C@H]3COCCO3)cc21 (single isomer, unassigned) [Example 316, (4R or 4S)-2-{[(2S)-1,4-dioxan-2-yl]methyl}-4-methyl-N-[(1,3-thiazol-5-yl)methyl]-8-(trifluoromethyl)-4,5-dihydro-2H-furo[2,3-g]indazole-7-carboxamide] | 374 |
| Cc1c(C(=O)NCC(C)(C)O)oc2c1-c1nn(Cc3ccccn3)cc1CC2 [Example 10, N-(2-hydroxy-2-methylpropyl)-8-methyl-2-(pyridin-2-ylmethyl)-4,5-dihydro-2H-furo[2,3-g]indazole-7-carboxamide] | > 20000 |
| O=C(NC[C@@H]1COCCO1)c1oc2c(c1C(F)(F)F)-c1nn(Cc3ccccn3)cc1C1(CC1)C2 [Example 219, N-[(2R)-1,4-Dioxan-2-ylmethyl]-2′-(pyridin-2-ylmethyl)-8′-(trifluormethyl)-2′,5′-dihydrospiro[cyclopropan-1,4′-furo[2,3-g]indazol]-7′-carboxamide] | 7 |
| Cc1c(C(=O)NC[C@@H]2COCCO2)oc2c1-c1nn(Cc3ccccn3)cc1CC2 [Example 19-1, N-[(2R)-1,4-dioxan-2-ylmethyl]-8-methyl-2-(pyridin-2-ylmethyl)-4,5-dihydro-2H-furo[2,3-g]indazole-7-carboxamide] | 64 |
| Cc1c(C(=O)NC[C@@H]2COCCO2)oc2c1-c1nn(C[C@@H]3CCOC3)cc1CC2 [Example 114, N-[(2R)-1,4-dioxan-2-ylmethyl]-8-methyl-2-[(3S)-tetrahydrofuran-3-ylmethyl]-4,5-dihydro-2H-furo[2,3-g]indazole-7-carboxamide] | 200 |
| Cc1c(C(=O)NCc2ncco2)oc2c1-c1nn(Cc3ccccn3)cc1C1(CC1)C2 [Example 124, 8′-methyl-N-(1,3-oxazol-2-ylmethyl)-2′-(pyridin-2-ylmethyl)-2′,5′-dihydrospiro[cyclopropane-1,4′-furo[2,3-g]indazole]-7′-carboxamide] | 180 |
| Cc1c(C(=O)NCCN2CC(C)(C)C2=O)oc2c1-c1nn(Cc3ccccn3)cc1CC2 [Example 28, N-[2-(3,3-dimethyl-2-oxoazetidin-1-yl)ethyl]-8-methyl-2-(pyridin-2-ylmethyl)-4,5-dihydro-2H-furo[2,3-g]indazole-7-carboxamide] | 4570 |
| C[C@@H]1Cc2oc(C(=O)NC[C@@H]3CCCO3)c(C(F)(F)F)c2-c2nn(CC3CCN(C(=O)C4(C)CC4)CC3)cc21 (single isomer, unassigned) [Example 298, (4R or 4S)-4-methyl-2-{[1-(1-methylcyclopropane-1-carbonyl)piperidin-4-yl]methyl}-N-{[(2S)-oxolan-2-yl]methyl}-8-(trifluoromethyl)-4,5-dihydro-2H-furo[2,3-g]indazole-7-carboxamide] | 9 |
